This note sets out measurements from patent US8889696B2, “Substituted pyrido[2,3-d]pyrimidin-7(8H)-ones and therapeutic uses thereof” (Temple University—Of The Commonwealth System Of Higher …, priority 2009, dated 2014).

A value given as a limit tells only on which side of the number the result lay.

The test system of series [1] is K562 (chronic myelogenous leukemia). In words: Effect on tumor cell lines (Latham assay), K562. Type of series: cell-based. As to conditions: Homo sapiens; K562 cells, examined 96 hours after treatment; read-out: Potencies (IC50) K 562. As to the method:
(§1) The plated cells were treated 24 hours later with a compound of the invention dissolved in DMSO at multiple concentrations ranging from 0.01 μM to 100 μM. […] When necessary, the total number of viable cells was determined by trypsinizing the wells and counting the number of viable cells, as determined by trypan blue exclusion, using a hemacytometer.

Series [2] deals with DU145 (prostate cancer). In words: Effect on tumor cell lines (Latham assay), DU145. Format: cell-based. As to conditions: Homo sapiens, DU-145; DU145 cells, examined 96 hours after treatment; read-out: Potencies (IC50) DU 145. As to the method: as §1
For series [3], the system named is HFL (human fibroblast). In words: Normal cell killing, HFL. Format: cell-based. As to conditions: concentration 5-fold higher than a concentration that resulted in tumor cell killing. The method, then: (§2) The effect of the compounds of the invention on tumor cells was determined by the assay described by Latham et al., Oncogene 12:827-837 (1996). Tumor cells K562 (chronic myelogenous leukemia; leukemia cell line +ve for Bcr-Abl) or DU145 (prostate cancer) were plated in 12-well dishes at a cell density of 2.5×10^4 cells well. The plated cells were treated 24 hours later with a compound of the invention dissolved in DMSO at multiple concentrations ranging from 0.01 μM to 100 μM. The plates were examined 96 hours later under an inverted microscope, Olympus CK-2 using an 10× objective, and compound activity was noted by physical observation. When necessary, the total number of viable cells was determined by trypsinizing the wells and counting the number of viable cells, as determined by trypan blue exclusion, using a hemacytometer.
(§3) Utilizing a similar procedure, the compounds of Example 12 and Example 40 were tested on two normal cell lines: HFL (human fibroblast) and hMSC (human marrow stem cell).

Series [4] concerns hMSC (human marrow stem cell). In words: Normal cell killing, hMSC. Type of series: cell-based. As to conditions: concentration 5-fold higher than a concentration that resulted in tumor cell killing. The method, then: as §2, §3
The target of series [5] is WNK2 (Homo sapiens (Human), UniProt Q9Y3S1). Briefly: Kinase profiling. Type of series: biochemical. As to conditions: 10 μM ATP.
Series [6] addresses PBK/TOPK (Homo sapiens (Human), UniProt Q96KB5). Briefly: Kinase profiling. Format: biochemical. As to conditions: 10 μM ATP.
Series [7] addresses PLK2 (Homo sapiens (Human), UniProt Q9NYY3). Briefly: Plk kinase inhibition assay (32P-ATP, casein). As to conditions: 5 μM ATP, FIG. 1. Type of series: biochemical. As to the method:
(§4) Ten ng of recombinant Plk1, Plk2, Plk3 or Plk4 kinase were incubated with the indicated concentrations of compound for 30 minutes at room temperature. Kinase reactions were started by the addition of substrate mix (5 μM ATP, 10 μCi γ^32P-ATP, 1 μg α-casein, 10 mM MgCl2) for 15 minutes at 30° C. Reactions were stopped by 3% phosphoric acid, spotted on PE30 filtermat, washed, dried and subjected to scintillation counting. Data is plotted (after background subtraction) using GraphPad Prism4 software as a non-linear regression plot with variable slope to obtain IC50 values.
(§5) Kinase reactions were started by the addition of substrate mix (5 μM ATP, 10 μCi γ^32P-ATP, 1 μg α-casein, 10 mM MgCl2) for 15 minutes at 30° C. Reactions were stopped by 3% phosphoric acid, spotted on PE30 filtermat, washed, dried and subjected to scintillation counting. Data is plotted (after background subtraction) using GraphPad Prism4 software as a non-linear regression plot with variable slope to obtain IC50 values.

The target in series [8] is recombinant Plk3 (Homo sapiens (Human), UniProt Q9H4B4). In words: Plk kinase inhibition assay (32P-ATP, casein). Type of series: biochemical. As to conditions: 5 μM ATP, FIG. 1. As to the method:
as §4, §5

Series [9] has as its target recombinant Plk1 (Homo sapiens (Human), UniProt P53350).
The subject of series [10] is CD-1 female mice. In words: Toxicity study in mice. Format: in vivo. As to conditions: female, CD-1, mouse, in vivo, 7 days. The method, then:
. DMSO was used as a placebo. Three CD-1 female mice were used per group. Drugs were administered intraperitoneally at 100 mg/kg. Viability, signs of toxicity and body weight were monitored over the next 7 days. […]. […] Comparative body weight studies could not be carried out for this compound due to the early death of animals. These observations agree with the known toxicity of BI-2536. […]. Following this treatment, 100% survival for >10 days after injection was observed. […]

The IC50 is the point on the concentration scale where inhibition reaches its midpoint. As a reminder, the melting point is the temperature, or range, at which the solid turns liquid.

Sequence of WNK2 (Q9Y3S1 whole entry): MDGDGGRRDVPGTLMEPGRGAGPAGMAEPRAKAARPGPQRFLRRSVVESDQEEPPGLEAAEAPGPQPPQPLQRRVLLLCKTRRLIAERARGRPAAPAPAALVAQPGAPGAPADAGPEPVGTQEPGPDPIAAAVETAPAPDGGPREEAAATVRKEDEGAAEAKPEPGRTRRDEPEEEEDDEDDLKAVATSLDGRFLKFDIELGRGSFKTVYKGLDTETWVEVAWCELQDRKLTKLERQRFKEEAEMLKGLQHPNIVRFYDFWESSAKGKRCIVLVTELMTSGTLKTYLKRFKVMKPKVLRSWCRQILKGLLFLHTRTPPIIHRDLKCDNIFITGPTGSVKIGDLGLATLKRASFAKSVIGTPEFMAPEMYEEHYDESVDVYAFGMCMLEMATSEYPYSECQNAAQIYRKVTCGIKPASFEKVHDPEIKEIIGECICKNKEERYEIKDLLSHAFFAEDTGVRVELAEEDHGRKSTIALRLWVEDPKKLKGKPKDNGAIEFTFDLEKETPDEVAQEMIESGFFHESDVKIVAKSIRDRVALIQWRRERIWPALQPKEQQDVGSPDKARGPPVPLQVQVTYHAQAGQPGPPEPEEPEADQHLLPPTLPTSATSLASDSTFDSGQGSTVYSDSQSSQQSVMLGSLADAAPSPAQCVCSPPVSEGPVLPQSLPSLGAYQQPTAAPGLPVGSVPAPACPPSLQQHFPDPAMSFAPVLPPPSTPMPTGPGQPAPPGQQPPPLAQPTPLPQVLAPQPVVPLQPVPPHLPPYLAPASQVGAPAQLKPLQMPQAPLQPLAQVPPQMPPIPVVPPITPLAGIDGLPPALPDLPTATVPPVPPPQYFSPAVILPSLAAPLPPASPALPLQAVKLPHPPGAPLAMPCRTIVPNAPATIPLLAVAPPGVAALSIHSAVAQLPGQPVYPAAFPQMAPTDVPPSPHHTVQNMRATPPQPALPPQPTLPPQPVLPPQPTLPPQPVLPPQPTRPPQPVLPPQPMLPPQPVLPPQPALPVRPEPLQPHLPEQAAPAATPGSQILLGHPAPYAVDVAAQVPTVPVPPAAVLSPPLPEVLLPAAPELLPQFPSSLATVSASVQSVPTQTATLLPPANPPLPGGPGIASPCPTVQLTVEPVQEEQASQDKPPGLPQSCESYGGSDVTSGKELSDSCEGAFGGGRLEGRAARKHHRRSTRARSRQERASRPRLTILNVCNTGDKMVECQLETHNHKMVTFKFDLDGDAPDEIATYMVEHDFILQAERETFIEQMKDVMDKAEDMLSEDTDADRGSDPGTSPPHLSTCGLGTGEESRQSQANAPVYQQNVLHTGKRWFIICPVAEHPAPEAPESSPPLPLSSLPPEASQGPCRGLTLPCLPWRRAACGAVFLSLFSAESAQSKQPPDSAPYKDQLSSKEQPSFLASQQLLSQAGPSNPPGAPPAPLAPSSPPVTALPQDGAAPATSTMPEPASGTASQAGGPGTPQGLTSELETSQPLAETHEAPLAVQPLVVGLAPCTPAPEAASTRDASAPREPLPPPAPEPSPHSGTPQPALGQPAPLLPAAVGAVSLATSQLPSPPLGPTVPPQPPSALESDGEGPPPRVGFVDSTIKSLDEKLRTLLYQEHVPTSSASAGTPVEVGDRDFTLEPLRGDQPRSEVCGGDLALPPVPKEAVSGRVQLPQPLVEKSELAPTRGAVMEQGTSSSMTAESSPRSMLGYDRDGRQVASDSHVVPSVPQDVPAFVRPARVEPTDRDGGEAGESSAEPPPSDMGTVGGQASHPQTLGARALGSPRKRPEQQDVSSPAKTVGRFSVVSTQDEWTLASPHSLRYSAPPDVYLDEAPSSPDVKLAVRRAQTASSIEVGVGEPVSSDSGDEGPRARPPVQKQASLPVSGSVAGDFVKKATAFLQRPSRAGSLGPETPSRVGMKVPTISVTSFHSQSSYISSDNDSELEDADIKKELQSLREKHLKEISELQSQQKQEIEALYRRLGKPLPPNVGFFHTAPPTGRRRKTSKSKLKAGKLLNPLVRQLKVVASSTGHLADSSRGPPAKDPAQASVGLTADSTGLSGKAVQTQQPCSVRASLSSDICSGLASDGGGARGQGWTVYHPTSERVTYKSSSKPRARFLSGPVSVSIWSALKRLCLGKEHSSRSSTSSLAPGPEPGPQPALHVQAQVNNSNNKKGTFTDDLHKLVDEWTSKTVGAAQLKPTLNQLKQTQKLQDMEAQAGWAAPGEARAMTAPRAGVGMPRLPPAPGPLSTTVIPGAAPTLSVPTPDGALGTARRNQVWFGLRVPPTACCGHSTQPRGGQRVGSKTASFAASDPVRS
Sequence of recombinant Plk3 (Q9H4B4 whole entry): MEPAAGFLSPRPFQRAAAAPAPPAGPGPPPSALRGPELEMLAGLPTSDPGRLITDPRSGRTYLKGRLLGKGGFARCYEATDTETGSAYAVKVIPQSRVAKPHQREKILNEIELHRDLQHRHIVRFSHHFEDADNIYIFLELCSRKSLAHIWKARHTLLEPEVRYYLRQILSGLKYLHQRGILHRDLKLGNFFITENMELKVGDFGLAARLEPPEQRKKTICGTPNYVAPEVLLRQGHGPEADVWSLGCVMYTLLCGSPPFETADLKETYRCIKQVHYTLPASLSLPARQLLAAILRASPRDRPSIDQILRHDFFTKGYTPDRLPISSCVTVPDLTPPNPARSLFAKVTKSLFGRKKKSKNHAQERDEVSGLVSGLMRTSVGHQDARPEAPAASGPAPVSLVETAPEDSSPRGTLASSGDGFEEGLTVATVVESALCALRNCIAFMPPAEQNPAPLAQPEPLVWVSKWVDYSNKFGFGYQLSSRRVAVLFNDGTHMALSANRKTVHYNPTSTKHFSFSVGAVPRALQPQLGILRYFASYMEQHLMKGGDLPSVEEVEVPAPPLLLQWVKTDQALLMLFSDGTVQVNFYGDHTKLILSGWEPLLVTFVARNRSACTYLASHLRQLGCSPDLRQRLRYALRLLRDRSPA
Sequence of PBK/TOPK (Q96KB5 whole entry): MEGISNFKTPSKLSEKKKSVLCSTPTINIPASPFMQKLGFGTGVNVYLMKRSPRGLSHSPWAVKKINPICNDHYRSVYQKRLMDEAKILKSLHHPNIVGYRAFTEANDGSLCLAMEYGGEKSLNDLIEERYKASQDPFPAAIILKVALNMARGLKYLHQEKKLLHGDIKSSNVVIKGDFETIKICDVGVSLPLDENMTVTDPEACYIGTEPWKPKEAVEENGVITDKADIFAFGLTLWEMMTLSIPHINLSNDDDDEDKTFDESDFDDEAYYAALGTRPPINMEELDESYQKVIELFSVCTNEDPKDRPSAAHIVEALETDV
Sequence of recombinant Plk1 (P53350 whole entry): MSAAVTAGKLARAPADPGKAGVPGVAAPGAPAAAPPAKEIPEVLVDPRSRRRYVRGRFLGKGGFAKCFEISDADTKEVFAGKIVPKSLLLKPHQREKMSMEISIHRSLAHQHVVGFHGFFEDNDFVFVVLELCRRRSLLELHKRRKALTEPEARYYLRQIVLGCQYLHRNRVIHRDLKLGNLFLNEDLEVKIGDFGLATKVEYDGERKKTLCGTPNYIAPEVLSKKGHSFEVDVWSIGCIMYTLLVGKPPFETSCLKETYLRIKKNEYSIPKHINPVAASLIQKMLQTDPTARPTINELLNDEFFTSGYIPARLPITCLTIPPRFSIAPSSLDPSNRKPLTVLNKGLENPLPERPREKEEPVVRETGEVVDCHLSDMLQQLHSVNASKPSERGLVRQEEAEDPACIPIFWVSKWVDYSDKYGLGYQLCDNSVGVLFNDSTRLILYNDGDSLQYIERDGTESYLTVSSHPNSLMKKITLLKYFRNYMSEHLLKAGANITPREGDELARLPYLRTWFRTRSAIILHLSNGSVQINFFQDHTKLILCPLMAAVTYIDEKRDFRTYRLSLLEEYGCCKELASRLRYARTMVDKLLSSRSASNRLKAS
Sequence of PLK2 (Q9NYY3 whole entry): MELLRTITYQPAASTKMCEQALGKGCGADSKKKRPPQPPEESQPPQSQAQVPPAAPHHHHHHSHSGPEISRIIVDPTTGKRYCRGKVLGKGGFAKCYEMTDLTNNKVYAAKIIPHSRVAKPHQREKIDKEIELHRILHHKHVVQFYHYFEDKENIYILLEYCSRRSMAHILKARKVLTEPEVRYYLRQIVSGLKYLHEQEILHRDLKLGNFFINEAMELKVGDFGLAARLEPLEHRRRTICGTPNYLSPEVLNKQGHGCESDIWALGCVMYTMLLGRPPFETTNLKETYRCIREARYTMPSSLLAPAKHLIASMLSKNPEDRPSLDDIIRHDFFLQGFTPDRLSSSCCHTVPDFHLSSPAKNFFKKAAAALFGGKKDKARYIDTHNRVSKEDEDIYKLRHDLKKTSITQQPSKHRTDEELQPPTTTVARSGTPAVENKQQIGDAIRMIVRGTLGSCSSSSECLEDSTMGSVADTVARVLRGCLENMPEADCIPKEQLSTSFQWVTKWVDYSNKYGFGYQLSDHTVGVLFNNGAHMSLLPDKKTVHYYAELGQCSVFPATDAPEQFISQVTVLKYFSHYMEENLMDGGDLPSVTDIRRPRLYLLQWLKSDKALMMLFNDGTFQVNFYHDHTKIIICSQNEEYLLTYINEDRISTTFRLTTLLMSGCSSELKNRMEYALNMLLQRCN

`Cn1c(=O)c(S(=O)(=O)c2ccc(F)cc2F)cc2cnc(Nc3ccc4[nH]ncc4c3)nc21` [Example 40, 2-(1H-indazol-5-ylamino)-6-(2,4-difluorophenylsulfonyl)-8-methylpyrido[2,3-d]pyrimidin-7(8H)-one]: the IC50 in [1] and in [2] was 10 to 25 µM throughout. The “killing of normal cells” value in series [3] and in series [4] was “did not kill the normal cells” throughout.
Regarding Staurosporine, the results for the IC50 in series [5] and in series [6] were 8.09 µM and 0.433 µM, respectively.
`Cn1c(=O)c(S(=O)(=O)c2ccc(F)cc2)cc2cnc(Nc3cnc4[nH]ccc4c3)nc21` [Example 12, 2-(1H-pyrrolo[2,3-b]pyridin-5-ylamino)-6-(4-fluorophenylsulfonyl)-8-methylpyrido[2,3-d]pyrimidin-7(8H)-one] showed a melting point of 274 to 280 °C. In addition, the IC50 in series [1] was under 1 µM. Moreover, in series [2], the IC50 was under 1 µM. Besides, the “killing of normal cells” value in [3] is on record as “did not kill the normal cells”. Further, the “killing of normal cells” value in series [4] is reported as “did not kill the normal cells”.
Take `COC[C@H]1OC(=O)c2coc3c2[C@@]1(C)C1=C(C3=O)[C@@H]2CCC(=O)[C@@]2(C)C[C@H]1OC(C)=O` [Wortmanin, wortmanin, reference compound]: the “inhibitory activity against PLK-2” value in [7] is “nanomolar inhibitory activity”. Besides, in series [8], the “inhibitory activity against PLK-3” value is “nanomolar inhibitory activity”. Besides, the “inhibitory activity against PLK-1” value in series [9] was “nanomolar inhibitory activity”.
On to `CC[C@@H]1C(=O)N(C)c2cnc(Nc3ccc(C(=O)NC4CCN(C)CC4)cc3OC)nc2N1C1CCCC1` [BI-2536, reference compound], for which the death of mice entry in series [10] is reported as “two mice died within 24 hours while the third mouse died within 72 hours”.
